{
  "source": "patent US9233093B2",
  "about": "“Composition and/or method for preventing recurrence of stroke” (MOCHIDA PHARMACEUTICALS CO., LTD., priority 2006, dated 2016)",
  "key": {"[1]": {"system": "hyperlipidemia patients having history of stroke (onset/recurrence of stroke)", "assay": "DELIS (Japan EPA Lipid Intervention Study) partial analysis: recurrence of stroke over 5 years in patients with history of stroke", "assay_type": "in vivo, human", "set-up": "Inhibition Rate (%): concentration or dose not given beside the values", "settings": "for Incidence rate (%) of EPA-E group: TG less than 400 mg/dL; for Inhibition Rate (%): vs control group; for reduction of the incidence rate of stroke (in words): time course 1 to 5 years", "procedure": "This trial is a partial analysis of the results obtained in DELIS (Japan EPA Lipid Intervention Study), a large scale clinical trial of high purity EPA preparation which was presented at the American College of Cardiology 2005 Annual Meeting.\nSpecifically, of the 18,645 subject patients in the DELIS trial (hyperlipidemia patients with serum T-Cho concentration of 250 mg/dl or more, at ages of 40 to 75 for male and […] to 75 for female; the patients within six months from the onset of stroke were excluded in order to exclude patients in the acute period of the stroke from the trial subjects) (EPA-E group (9,326 cases) and control group (9,319 cases)), 485 subjects from the EPA-E group and 457 subjects from the control group, having history of stroke (cerebral thrombosis, cerebral embolism, intracerebral hemorrhage, subarachnoid hemorrhage, and transient ischemic attack) were observed and analyzed for the recurrence of stroke during the period of 5 years from the start of the administration. Further, for the cases where serum TG/HDL-C ratio was known (but excluding the cases where TG value was 400 mg/dl or more), results from the subjects divided into three groups based on the serum TG/HDL-C ratio at the time of registration were also analyzed. The EPA-E group was orally administered with Epadel (Mochida Pharmaceutical Co., Ltd.) typically at an adult dose of 600 mg per administration and 3 times a day immediately after the meal. However, in the cases having abnormal serum TG, the dose could be increased up to 900 mg per administration and 3 times a day, depending on the abnormality. In both groups, pravastatin sodium (Mevalotin™ tablets and fine granules, Sankyo Co., Ltd.), simvastatin (Lipovas™ tablets, Banyu Pharmaceutical Co., Ltd.), or atorvastatin calcium hydrate (Lipitor™ tablets, Astellas Pharma Inc. and Pfizer) was used as a base drug (basal treatment), which was orally administered according to a predetermined dosage regimen.\nThe number of onset (recurrence) of stroke, the incidence rate (%), and the odds ratio for the EPA-E group in relation to the control group during the observation period of 5 years are shown in Table 1. The odds ratio was calculated by the equation of (incidence rate of the EPA-E group)/(incidence rate of the control group), and the inhibition rate of onset of stroke was calculated by the equation of {((incidence rate of stroke for the control group)−(incidence rate of stroke for the EPA-E group))/(incidence rate of stroke for the control group)}×100.\nFurther, the data described above were statistically analyzed by taking biases in the background (smoking habit, diabetes, etc.) between the groups into consideration.\nSimilarly, for the cases where serum TG/HDL-C ratio was known (but excluding the cases where TG value was 400 mg/dl or more), each of the three groups of subjects, which are divided based on the serum TG/HDL-C ratio at the time of registration, was analyzed on the number of onset (recurrence) of stroke, the incidence rate (%), and the odds ratio for the EPA-E group in relation to the control group during the observation period of 5 years, as shown in Table 4. The odds ratio was calculated by the equation of (incidence rate of the EPA-E group)/(incidence rate of the control group), and the inhibition rate of onset of stroke was calculated by the equation of {((incidence rate of stroke for the control group)−(incidence rate of stroke for the EPA-E group))/(incidence rate of stroke for the control group)}×100."}, "[2]": {"system": "hyperlipidemia patients (cardiac events)", "settings": "use in combination with statin; large scale clinical trial; cited from earlier work"}, "[3]": {"settings": "after 1 year, serum TG/HDL-C ratio 3.75 or more"}, "[4]": {"settings": "after 2 years, serum TG/HDL-C ratio 3.75 or more"}, "[5]": {"settings": "after 3 years, serum TG/HDL-C ratio 3.75 or more"}, "[6]": {"settings": "after 4 years, serum TG/HDL-C ratio 3.75 or more"}, "[7]": {"settings": "after 5 years, serum TG/HDL-C ratio 3.75 or more"}, "[8]": {"settings": "all patients with history of stroke, 5 years"}, "[9]": {"settings": "cerebral thrombosis, patients with history of stroke, 5 years"}, "[10]": {"settings": "serum TG/HDL-C ratio at registration less than 1, TG less than 400 mg/dl, 5 years"}, "[11]": {"settings": "total of infarction type diseases, patients with history of stroke, 5 years"}},
  "note": "Where “and” joins values, the source holds several entries; their conditions need not be identical. Identical values can stand only once.",
  "data": [
    {"smiles": "CC/C=C\\C/C=C\\C/C=C\\C/C=C\\C/C=C\\CCCC(=O)OCC", "note": "[EPA-E, ethyl icosapentate]", "values": [
      {"measurement": "Incidence rate (%) in EPA-E group", "setting": "[1]; after 1 year, all patients with history of stroke, analyzed taking background biases into consideration", "value": 2.1, "unit": "%"},
      {"measurement": "Incidence rate (%) of EPA-E group", "setting": "[1]; [3]", "value": 1.5, "unit": "%"},
      {"measurement": "Inhibition Rate (%)", "setting": "[1]; [3]", "value": 17, "unit": "%"},
      {"measurement": "Incidence rate (%) in EPA-E group", "setting": "[1]; after 2 years, all patients with history of stroke, bias-adjusted analysis", "value": 3.6, "unit": "%"},
      {"measurement": "Inhibition Rate (%)", "setting": "[1]; after 2 years, all patients with history of stroke", "value": 8, "unit": "%"},
      {"measurement": "Incidence rate (%) of EPA-E group", "setting": "[1]; [4]", "value": 2.9, "unit": "%"},
      {"measurement": "Inhibition Rate (%)", "setting": "[1]; [4]", "value": 53, "unit": "%"},
      {"measurement": "Incidence rate (%) in EPA-E group", "setting": "[1]; after 3 years, all patients with history of stroke, bias-adjusted analysis", "value": 4.7, "unit": "%"},
      {"measurement": "Inhibition Rate (%)", "setting": "[1]; after 3 years, all patients with history of stroke", "value": 16, "unit": "%"},
      {"measurement": "Incidence rate (%) of EPA-E group", "setting": "[1]; [5]", "value": 4.4, "unit": "%"},
      {"measurement": "Inhibition Rate (%)", "setting": "[1]; [5]", "value": 29, "unit": "%"},
      {"measurement": "Incidence rate (%) in EPA-E group", "setting": "[1]; after 4 years, all patients with history of stroke, bias-adjusted analysis", "value": 5.7, "unit": "%"},
      {"measurement": "Inhibition Rate (%)", "setting": "[1]; after 4 years, all patients with history of stroke", "value": 35, "unit": "%"},
      {"measurement": "Incidence rate (%) of EPA-E group", "setting": "[1]; [6]", "value": 5.2, "unit": "%"},
      {"measurement": "Inhibition Rate (%)", "setting": "[1]; [6]", "value": 55, "unit": "%"},
      {"measurement": "Incidence rate (%) in EPA-E group", "setting": "[1]; after 5 years, all patients with history of stroke, bias-adjusted analysis", "value": 7.4, "unit": "%"},
      {"measurement": "Inhibition Rate (%)", "setting": "[1]; after 5 years, all patients with history of stroke", "value": 37, "unit": "%"},
      {"measurement": "Incidence rate (%) of EPA-E group", "setting": "[1]; [7]", "value": 7.4, "unit": "%"},
      {"measurement": "Inhibition Rate (%)", "setting": "[1]; [7]", "value": 48, "unit": "%"},
      {"measurement": "Odds ratio (incidence rate of EPA-E group/incidence rate of control group)", "setting": "[1]; [8]", "value": 0.648},
      {"measurement": "reduction of incidence rate of stroke compared with the control group", "setting": "[1]; [8]", "value": "about 35%"},
      {"measurement": "Stroke cases/All cases", "setting": "[1]; all patients with history of stroke, observation period of 5 years, Epadel 600 mg 3 times a day (up to 900 mg) plus statin base drug", "value": "33/485"},
      {"measurement": "reduction of the incidence rate of stroke (in words)", "setting": "[1]; all patients with history of stroke", "value": "significant at 3 years or later after the start of the administration"},
      {"measurement": "Stroke cases/All cases, cerebral thrombosis", "setting": "[1]; [9]", "value": "13/485"},
      {"measurement": "incidence rate, cerebral thrombosis", "setting": "[1]; [9]", "value": "(2.9%)"},
      {"measurement": "number of cases and incidence rates of hemorrhage type diseases vs control group", "setting": "[1]; hemorrhage type diseases, patients with history of stroke", "value": "lower"},
      {"measurement": "reduction of the incidence rate of stroke (in words)", "setting": "[1]; patients with serum TG/HDL-C ratio 3.75 or more", "value": "significant at 3 years or later after the start of the administration"},
      {"measurement": "reduction of incidence rate of stroke compared to the control group", "setting": "[1]; serum TG/HDL-C ratio 1 or more but less than 3.75, 5 years", "value": "about 36%"},
      {"measurement": "reduction of incidence rate of stroke compared to the control group", "setting": "[1]; serum TG/HDL-C ratio 3.75 or more, 5 years", "value": "about 48%"},
      {"measurement": "Odds ratio (incidence rate of EPA-E group/incidence rate of control group)", "setting": "[1]; serum TG/HDL-C ratio at registration 1 to 3.75, 5 years", "value": 0.640},
      {"measurement": "Stroke cases/All cases", "setting": "[1]; serum TG/HDL-C ratio at registration 1 to 3.75, TG less than 400 mg/dl, 5 years", "value": "14/244"},
      {"measurement": "Odds ratio (incidence rate of EPA-E group/incidence rate of control group)", "setting": "[1]; serum TG/HDL-C ratio at registration 3.75 or more, 5 years", "value": 0.519},
      {"measurement": "Stroke cases/All cases", "setting": "[1]; serum TG/HDL-C ratio at registration 3.75 or more, TG less than 400 mg/dl, 5 years", "value": "10/135"},
      {"measurement": "Stroke cases/All cases", "setting": "[1]; [10]", "value": "no onset of stroke was observed and 0/18"},
      {"measurement": "incidence rate of stroke", "setting": "[1]; [10]", "value": "(0.0) %"},
      {"measurement": "Stroke cases/All cases, total of infarctions", "setting": "[1]; [11]", "value": "28/485"},
      {"measurement": "incidence rate, total of infarctions", "setting": "[1]; [11]", "value": "(6.20) %"},
      {"measurement": "inhibiting cardiac events", "setting": "[2]", "value": "effective"}
    ]}
  ]
}
